Here are results for ten compounds from ChEMBL document CHEMBL1201862, “PubChem BioAssay data set” (2004).

Among the test systems are SNB-75; SW-620; CAKI-1; 786-0; IGROV-1; SK-MEL-28; MOLT-4; NCI-H23; SN12C; SK-MEL-2; COLO 205; OVCAR-8; HCT-15; SNB-19; CCRF-CEM.
Test in all cases: inhibition of tumour cell growth, NCI panel, 48 h

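Values below derive from 48-hour exposures of cells grown in 96-well plates, with endpoints linearly interpolated between the two concentrations bracketing the appropriate inhibition level. GI50 marks 50% less growth.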 Activity calls are given as the source filed them. Rule as the data show it: active = GI50 up to about 1.1 µM and inactive = higher. Some results are limits rather than exact numbers.

Consider `CCc1ccccc1NC(=O)C(=O)CC(=O)c1sc(Nc2ccccc2)nc1C`, for which the GI50 in the test on SNB-75 was 67.9 µM (inactive); in the test on SW-620, > 100 µM (inactive); in the test with CAKI-1 it was 85.9 µM (inactive); in the test with 786-0 it was > 100 µM (inactive); in the test on IGROV-1, > 100 µM (inactive); in the test with SK-MEL-28 it was > 100 µM (inactive). The GI50 in the test on MOLT-4 is 48.6 µM (inactive); with NCI-H23, > 100 µM (inactive); in the test on SN12C it was > 100 µM (inactive); in the test on SK-MEL-2, > 100 µM (inactive); in the test on COLO 205, > 100 µM (inactive); with OVCAR-8 it was > 100 µM (inactive). In addition, the GI50 in the test on HCT-15 is over 100 µM; with SNB-19 it was > 100 µM (inactive); in the test with CCRF-CEM it was 32.1 µM (inactive).

In the case of `O=C(Nc1ccccc1Br)c1cccc([N+](=O)[O-])c1O`, the GI50 in the test on SNB-75 is 5.25 µM (inactive); with SW-620 it was 6.81 µM (inactive); in the test on CAKI-1, 3.37 µM (inactive); in the test on 786-0, 3.99 µM (inactive); in the test on IGROV-1, 2.88 µM (inactive); in the test with SK-MEL-28 it was 4.37 µM (inactive). The GI50 in the test with MOLT-4 was 2.26 µM (inactive); in the test with NCI-H23 it was 2.5 µM (inactive); in the test on SN12C, 3.94 µM (inactive); in the test on SK-MEL-2 it was 6.9 µM (inactive); with COLO 205 it was 3.66 µM (inactive); with OVCAR-8 it was 4.16 µM (inactive). Further, the GI50 in the test with HCT-15 was 4.6 µM; in the test with SNB-19 it was 3.81 µM (inactive); with CCRF-CEM, 2.78 µM (inactive).

As to `Clc1ccc(C2=NOC3C4CCC(C4)C23)cc1` (centres undefined), the GI50 with SNB-75, in the test with SW-620, in the test on CAKI-1, in the test on 786-0, with IGROV-1 and in the test with SK-MEL-28 was > 100 µM (inactive) in each case. Also, the GI50 in the test on MOLT-4 is 59.4 µM (inactive); in the test with NCI-H23, > 100 µM (inactive); with SN12C, > 100 µM (inactive); with SK-MEL-2, > 100 µM (inactive); in the test with COLO 205, > 100 µM (inactive); in the test on OVCAR-8, > 100 µM (inactive). Besides, the GI50 with HCT-15 is over 100 µM; in the test with SNB-19, > 100 µM (inactive); in the test with CCRF-CEM, > 100 µM (inactive).

As to `Cc1ccccc1NC(=O)CC(=O)n1nc(-c2ccccc2)c(/N=N/c2ccc([N+](=O)[O-])cc2)c1-c1ccccc1`, the GI50 was 19.2 µM (inactive) in the test with SNB-75; 30.5 µM (inactive) in the test with SW-620; 5.87 µM (inactive) with CAKI-1; 22.1 µM (inactive) in the test on 786-0; 28.1 µM (inactive) in the test on IGROV-1; 27.3 µM (inactive) with SK-MEL-28. Also, the GI50 is 16.1 µM (inactive) with MOLT-4; 21.3 µM (inactive) with NCI-H23; 22.1 µM (inactive) with SN12C; 25.3 µM (inactive) with SK-MEL-2; 16.8 µM (inactive) in the test with COLO 205; 31.4 µM (inactive) with OVCAR-8. Also, the figures for the GI50 with SNB-19 and with CCRF-CEM were 25.6 µM (inactive) and 28.4 µM (inactive), respectively.

Consider `Cc1c(C(Cc2ccccc2N(C)C(=O)/C=C\C(=O)O)c2c[nH]c3ccccc23)c2ccccc2n1C` (centres undefined), for which the GI50 in the test with SNB-75 is 16.5 µM (inactive); in the test on SW-620, 18.1 µM (inactive); with CAKI-1, 19.3 µM (inactive); with 786-0, 16.4 µM (inactive); with IGROV-1, 18.2 µM (inactive); in the test on MOLT-4 it was 22.9 µM (inactive). Further, the GI50 with NCI-H23 is 16.8 µM (inactive); in the test on SN12C it was 16 µM (inactive); in the test on SK-MEL-2 it was > 10 µM (inactive); with COLO 205, 14.5 µM (inactive); with OVCAR-8, 13.2 µM (inactive); with HCT-15, 14.3 µM. Also, the GI50 in the test on SNB-19 was 18 µM (inactive); in the test on CCRF-CEM it was 14.9 µM (inactive).

For `CC1=C(C(=O)NCc2ccccc2)C(c2ccccc2C)C(C(=O)NCc2ccccc2)=C(C)N1`, the GI50 in the test on SNB-75 was > 43.8 µM (inactive); in the test on SW-620, 38.8 µM (inactive); in the test on CAKI-1, 50.8 µM (inactive); in the test on 786-0, 25.1 µM (inactive); in the test on IGROV-1, 31.7 µM (inactive); in the test with SK-MEL-28, 27.6 µM (inactive). In addition, the GI50 is 27.1 µM (inactive) in the test with MOLT-4; 33.1 µM (inactive) with NCI-H23; 25.5 µM (inactive) in the test with SN12C; 18.5 µM (inactive) with SK-MEL-2; 38.8 µM (inactive) in the test with COLO 205; 17.9 µM (inactive) in the test on OVCAR-8. For the same compound, the results for the GI50 with HCT-15, with SNB-19 and in the test with CCRF-CEM were 17.7 µM, 35.6 µM (inactive) and 29.6 µM (inactive), respectively.

Consider `Cc1c(Cl)ccc2c1NC(=O)C2(O)C1Cc2ccccc2C1=O` (centres undefined), for which the GI50 was > 100 µM (inactive) in the test with SW-620; > 100 µM (inactive) with CAKI-1; 41.3 µM (inactive) with 786-0; > 100 µM (inactive) in the test on IGROV-1; > 100 µM (inactive) in the test with SK-MEL-28; 25.2 µM (inactive) with MOLT-4. Moreover, the GI50 was > 100 µM (inactive) in the test on NCI-H23; > 100 µM (inactive) in the test on SN12C; > 100 µM (inactive) in the test on SK-MEL-2; > 100 µM (inactive) with COLO 205; 11.2 µM (inactive) in the test on OVCAR-8; over 100 µM in the test with HCT-15. The GI50 with SNB-19 is > 100 µM (inactive); with CCRF-CEM, 26.1 µM (inactive).

For `O=C(NCCCCCCNC(=O)c1cccc2ccccc12)c1cccc2ccccc12`, the GI50 in the test with SNB-75 is 3.29 µM (inactive); in the test with SW-620, > 100 µM (inactive); in the test on CAKI-1, 21.3 µM (inactive); with 786-0, 23.7 µM (inactive); in the test with IGROV-1, 32.9 µM (inactive); in the test with SK-MEL-28, > 100 µM (inactive). Besides, the GI50 in the test with MOLT-4 is > 100 µM (inactive); in the test on NCI-H23, 31.5 µM (inactive); in the test with SN12C, 25.7 µM (inactive); in the test on SK-MEL-2 it was 12.2 µM (inactive); with COLO 205 it was 1.85 µM (inactive); in the test with OVCAR-8, 18.7 µM (inactive). Also, the GI50 in the test with HCT-15 is over 100 µM; with CCRF-CEM it was > 100 µM (inactive).

Consider `[N-]=[N+]=NC(c1cn(C2CC(O)C(CO)O2)c(=O)[nH]c1=O)C(Cl)Br` (centres undefined), for which the GI50 in the test on SNB-75, in the test with SW-620, in the test on CAKI-1, in the test on 786-0, in the test with SK-MEL-28 and in the test with MOLT-4 was > 100 µM (inactive) in each case. The GI50 with NCI-H23 is > 100 µM (inactive); in the test with SN12C, > 100 µM (inactive); in the test with SK-MEL-2 it was > 100 µM (inactive); in the test with COLO 205, > 100 µM (inactive); with OVCAR-8 it was > 100 µM (inactive); in the test on HCT-15, over 100 µM. In addition, the results for the GI50 with SNB-19 and with CCRF-CEM were > 100 µM (inactive) and 50.8 µM (inactive), respectively.

On to `[N-]=[N+]=NC1CC(n2cc(COCC(F)(F)F)c(=O)[nH]c2=O)OC1CO` (centres undefined), for which the GI50 with SNB-75, in the test on SW-620, in the test with CAKI-1, in the test with 786-0, in the test on IGROV-1 and in the test with SK-MEL-28 was > 100 µM (inactive) in each case. Besides, the GI50 in the test with MOLT-4, in the test with NCI-H23, in the test with SN12C, with SK-MEL-2, with COLO 205 and in the test on OVCAR-8 was > 100 µM (inactive) each time. Moreover, the GI50 with SNB-19 and in the test on CCRF-CEM was > 100 µM (inactive) each time.
